ChEMBL document CHEMBL3407417 (J Med Chem, 2015)
Converted amounts (≈) assume the structure as drawn.

What was measured:
A549 = assay: cells; conditions: Homo sapiens, A549, 72 h
[1] = Oral bioavailability in Sprague-Dawley rat at 1 mg/kg; format: ADME, organism-based; conditions: in vivo
[2] = Thermodynamic solubility of the compound in buffer containing 20 mmol/L of sodium taurocholate at pH 6.8; format: physicochemical; conditions: buffer containing 20 mmol/L sodium taurocholate, read-out: Therm_solubility
[3] = Volume of distribution at steady state in Sprague-Dawley rat at 0.5 mg/kg, iv; format: ADME, organism-based; parameters: dose 0.5 mg/kg, route intravenous; conditions: in vivo, read-out: Vdss
[4] = Stability in rat liver microsomes assessed as compound remaining after 30 mins; format: ADME; conditions: read-out: Stability
[5] = Plasma clearance in Sprague-Dawley rat at 0.5 mg/kg, iv; format: ADME, organism-based; parameters: dose 0.5 mg/kg, route intravenous
[6] = AUC in Sprague-Dawley rat at 1 mg/kg, po; format: ADME, organism-based; parameters: dose 1 mg/kg, route oral; conditions: plasma
[7] = Cmax in Sprague-Dawley rat at 1 mg/kg, po; format: ADME, organism-based; parameters: dose 1 mg/kg, route oral; conditions: in vivo
Mus musculus [8] = assay: Toxicity in human NCI-H460 cells xenografted nude mouse assessed as body weight loss at 2.5 mg/kg, po qd for 2 weeks relative to control; format: organism-based; parameters: dose 2.5 mg/kg, route oral; conditions: in vivo, 336 h
[9] = Tmax in BALB/c AJcl-nu/nu mouse at 10 mg/kg, po; format: ADME, organism-based; parameters: dose 10 mg/kg, route oral; conditions: in vivo
NCI-H460 [10] = assay: Antitumor activity against human NCI-H460 cells xenografted in nude mouse assessed as tumor growth inhibition at 5 mg/kg, po qd for 2 weeks relative to control; format: functional
NCI-H460 [11] = assay: Antitumor activity against human NCI-H460 cells xenografted in nude mouse assessed as tumor growth inhibition at 2.5 mg/kg, po qd for 2 weeks relative to control; format: functional
[12] = Cmax in BALB/c AJcl-nu/nu mouse at 10 mg/kg, po; format: ADME, organism-based; parameters: dose 10 mg/kg, route oral; conditions: in vivo
[13] = Cmax in BALB/c AJcl-nu/nu mouse at 100 mg/kg, po; format: ADME, organism-based; parameters: dose 100 mg/kg, route oral; conditions: in vivo
[14] = AUC in BALB/c AJcl-nu/nu mouse at 10 mg/kg, po; format: ADME, organism-based; parameters: dose 10 mg/kg, route oral; conditions: plasma
Mus musculus [15] = assay: Toxicity in human NCI-H460 cells xenografted nude mouse assessed as body weight loss at 5 mg/kg, po qd for 2 weeks relative to control; format: organism-based; parameters: dose 5 mg/kg, route oral; conditions: in vivo, 336 h
[16] = Tmax in BALB/c AJcl-nu/nu mouse at 100 mg/kg, po; format: ADME, organism-based; parameters: dose 100 mg/kg, route oral; conditions: in vivo
Mus musculus [17] = assay: Toxicity in human NCI-H460 cells xenografted nude mouse assessed as body weight loss at 10 mg/kg, po qd for 2 weeks relative to control; format: organism-based; parameters: dose 10 mg/kg, route oral; conditions: in vivo, 336 h
NCI-H460 [18] = assay: Antitumor activity against human NCI-H460 cells xenografted in nude mouse assessed as tumor growth inhibition at 10 mg/kg, po qd for 2 weeks relative to control; format: functional
Plasma = assay: Fraction unbound in rat plasma; format: ADME, cell-free
[19] = AUC in BALB/c AJcl-nu/nu mouse at 100 mg/kg, po; format: ADME, organism-based; parameters: dose 100 mg/kg, route oral; conditions: plasma
Mus musculus [20] = assay: Toxicity in human NCI-H460 cells xenografted nude mouse assessed as mortality at 5 to 10 mg/kg, po qd for 2 weeks relative to control; format: organism-based; parameters: dose 5-10 mg/kg, route oral; conditions: in vivo, 336 h
cells [21] = conditions: Homo sapiens, MIA PaCa-2, 72 h
Description: Antiproliferative activity against human MIAPaCa2 cells after 72 hrs by WST8 assay

MRC5 = assay: Antiproliferative activity against human MRC5 cells after 72 hrs by WST8 assay; format: cell-based; conditions: MRC5, 72 h
cells [22] = conditions: Homo sapiens, GSS, 72 h
Description: Antiproliferative activity against human GSS cells after 72 hrs by WST8 assay

cells [23] = conditions: Homo sapiens, HCT-116, 72 h
Description: Antiproliferative activity against human HCT116 cells after 72 hrs by WST8 assay

cells [24] = conditions: Homo sapiens, MKN-45, 72 h
Description: Antiproliferative activity against human MKN45 cells after 72 hrs by WST8 assay

cells [25] = conditions: Homo sapiens, LU-99A, 72 h
Description: Antiproliferative activity against human LU99A cells after 72 hrs by WST8 assay

NCI-H358 = assay: Antiproliferative activity against human NCI-H358 cells after 72 hrs by WST8 assay; format: functional, cell-based; conditions: NCI-H358, 72 h
HT-29 = assay: cells; conditions: Homo sapiens, HT-29, 72 h
Description: Antiproliferative activity against human HT-29 cells after 72 hrs by WST8 assay

cells [26] = conditions: Homo sapiens, PC-14, 72 h
Description: Antiproliferative activity against human PC14 cells after 72 hrs by WST8 assay

cells [27] = conditions: Homo sapiens, Lu116, 72 h
Description: Antiproliferative activity against human Lu116 cells after 72 hrs by WST8 assay

cells [28] = conditions: Homo sapiens, HCT-15, 72 h
Description: Antiproliferative activity against human HCT15 cells after 72 hrs by WST8 assay

cells [29] = conditions: Homo sapiens, HL-60, 72 h
Description: Antiproliferative activity against human HL60 cells after 72 hrs by WST8 assay

cells [30] = conditions: Homo sapiens, LC-2-ad, 72 h
Description: Antiproliferative activity against human LC2/ad cells after 72 hrs by WST8 assay

NCI-H460 [31] = assay: cells; conditions: Homo sapiens, NCI-H460, 72 h
Description: Antiproliferative activity against human NCI-H460 cells after 72 hrs by WST8 assay

Row | SMILES | bioavailability [1] | solubility thermodynamic [2] | Vd [3] | remaining at 0.5 h [4] | clearance [5] | AUC [6] | Cmax [7] | further results
1 | O=C(NC1CC1)c1ccc(-c2cnc3c(NCC4CCOCC4)nccn23)cc1 |  |  |  |  |  |  |  | IC50 (A549): 1500 nM
2 | N#Cc1ccc(-c2cn3c(-c4ccc(C(=O)NC5CC5)cc4)cnc3c(NCC3CCOCC3)n2)cc1 | 0% | 1 µg/mL (≈ 2.03 µM) | 5 L/kg | 0% | 145 mL/min/kg |  |  | 
3 | N#Cc1ccc(-c2cc(NCC3CCOCC3)c3ncc(-c4ccc(C(=O)NC5CC5)cc4)n3n2)cc1 | 0% | 0.49 µg/mL (≈ 0.995 µM) | 4.2 L/kg | 42% | 38 mL/min/kg |  |  | 
4 | N#Cc1ccc(-c2cc(NCC3CCOCC3)c3ncc(-c4ccc(C(=O)NC5CC5)cc4)n3n2)c(N)c1 | 0% | 2.6 µg/mL (≈ 5.12 µM) | 2 L/kg | 59% | 23 mL/min/kg |  |  | 
5 | O=C(NC1CC1)c1ccc(-c2cnc3c(NCC4CCOCC4)cc(OC4CCCCC4)nn23)cc1 | 23% | 10 µg/mL (≈ 20.4 µM) | 1.6 L/kg | 55% | 8.7 mL/min/kg | 439 ng·h/mL | 33 ng/mL | 
6 | O=C(NC1CC1)c1ccc(-c2cnc3c(NCC4CCOCC4)cc(Oc4ccccc4F)nn23)cc1 | 16% | 8 µg/mL (≈ 16 µM) | 2 L/kg | 39% | 22 mL/min/kg | 126 ng·h/mL | 16 ng/mL | 
7 | O=C(NC1CC1)c1ccc(-c2cnc3c(NCC4CCOCC4)cc(Oc4ccccc4O)nn23)cc1 | 0% | 1.3 µg/mL (≈ 2.6 µM) | 2.2 L/kg | 21% | 78 mL/min/kg |  |  | 
8 | CC(C)(C)Nc1cc(NCC2CCOCC2)c2ncc(-c3ccc(C(=O)NC4CC4)cc3)n2n1 | 36% | 63 µg/mL (≈ 136 µM) | 1.7 L/kg | 59% | 16 mL/min/kg | 377 ng·h/mL | 50 ng/mL | 
9 | CC(C)(Nc1cc(NCC2CCOCC2)c2ncc(-c3ccc(C(=O)NC4CC4)cc3)n2n1)C(F)(F)F | 24% | 29 µg/mL (≈ 56.1 µM) | 1.3 L/kg | 41% | 11 mL/min/kg | 360 ng·h/mL | 38 ng/mL | Activity (Mus musculus [8]): Non-toxic; Tmax [9]: 30 min; T/C (NCI-H460 [10]): 40%; T/C (NCI-H460 [11]): 57%; Cmax [12]: 2430 ng/mL; Cmax [13]: 14000 ng/mL; AUC [14]: 8000 ng·h/mL; Activity (Mus musculus [15]): 25%; Tmax [16]: 60 min; Activity (Mus musculus [17]): 32%; T/C (NCI-H460 [18]): 19%; Fu (Plasma): 0.51%; AUC [19]: 48500 ng·h/mL; Activity (Mus musculus [20]): Toxic
10 | COc1cc(Nc2ncc3c(n2)-c2ccc(Cl)cc2C(c2c(F)cccc2OC)=NC3)ccc1C(=O)O [ALISERTIB] |  |  |  |  |  |  |  | IC50 (cells [21]): 130 nM; IC50 (MRC5): > 10000 nM; IC50 (cells [22]): 39 nM; IC50 (cells [23]): 95 nM; IC50 (cells [24]): 93 nM; IC50 (cells [25]): 62 nM; IC50 (NCI-H358): 100 nM; IC50 (HT-29): 330 nM; IC50 (cells [26]): 170 nM; IC50 (cells [27]): 97 nM; IC50 (cells [28]): 740 nM; IC50 (cells [29]): 74 nM; IC50 (cells [30]): 77 nM
11 | CC(=O)O[C@H]1C(=O)[C@@]2(C)[C@H]([C@H](OC(=O)c3ccccc3)[C@]3(O)C[C@H](OC(=O)[C@H](O)[C@@H](NC(=O)c4ccccc4)c4ccccc4)C(C)=C1C3(C)C)[C@]1(OC(C)=O)CO[C@@H]1C[C@@H]2O [PACLITAXEL] |  |  |  |  |  |  |  | IC50 (cells [21]): 6.1 nM; IC50 (MRC5): 80 nM; IC50 (cells [22]): 3.4 nM; IC50 (cells [23]): 6.1 nM; IC50 (cells [24]): 4 nM; IC50 (cells [25]): 5.2 nM; IC50 (NCI-H358): 7.9 nM; IC50 (HT-29): 7 nM; IC50 (cells [26]): 4.4 nM; IC50 (cells [27]): 5.1 nM; IC50 (NCI-H460 [31]): 10 nM; IC50 (cells [28]): 240 nM; IC50 (cells [29]): 7.9 nM; IC50 (cells [30]): 2.5 nM
